# Measurements reported in paper PMC11887451, “Leveraging Immunogenic Cell Death to Enhance the Immune Response against Malignant Pleural Mesothelioma Tumors” (Journal of the American Chemical Society, 2025).
# What was measured:
# [1] = test system: human malignant mesothelioma cell line JU77; experiment: MTT cytotoxicity assay, 72 h, JU77; type: cell-based; conditions: exposure time 72 h
# Text: (§1) Human malignant mesothelioma cancer cell lines JU77 and LO68 were obtained from Cell Bank Australia (Children's Medical Research Institute, Westmead, Australia). Mouse malignant mesothelioma cancer cell line AB12, human nonmalignant mesothelioma cancer cell line Met5A (mesothelial cells), mouse macrophage cell line J774 and human monocytic cell line THP-1 were obtained from American Type Culture Collection (ATCC) (Rockville, MD, USA). Human malignant mesothelioma cell lines VMC23 (epithelial), Meso82 (sarcomatous), Meso92 (biphasic), were kindly provided by Prof. Walter Berger (Medical University of Vienna). All cells except for J774 were cultured in RPMI and J774 cells were cultured in DMEM. Both types of media were supplemented with 10% FBS and 1% penicillin-streptomycin (10,000 U/mL). Cells were grown in tissue culture flasks (75 cm2 and 25 cm2, SPL Life Sciences Co., Ltd., Korea). All cell lines were grown at 37 °C in a humidified atmosphere of 95% air and 5% CO 2 and passaged when they reached 80–90% confluency. All Au stock solutions were prepared in 1% DMSO in the respected medium, ensuring that cell viability was not inhibited.
# (§2) The cytotoxicity of compounds was determined using an MTT colorimetric test. The cells were harvested from culture flasks by trypsinization and seeded into Cellstar 96 -well microculture plates (Greiner Bio -One) at the seeding density of 6000 cells per well (6 × 10^4 cells/mL). After
# (§3) the cells were allowed to resume exponential growth for 16 h, they were exposed to drugs at
# (§4) different concentrations in media for 72 h. The drugs were diluted in a complete medium at the desired concentration added to each well (100 μL) and serially diluted in other wells. After exposure for 72 h, the media was replaced with MTT in media (5 mg/mL, 100 μL/well) and
# (§5) incubated for an additional 50 min. Subsequently, the medium was aspirated, and the purple formazan crystals formed in viable cells were dissolved in DMSO (100 μL/well). Optical densities were measured at 570 nm using a BioTek Synergy H1 microplate and MultiskanTM SkyHigh plate readers. The quantity of viable cells was expressed in terms of treated/control (T/C) values in comparison to untreated control cells, and 50% inhibitory concentrations (IC 50) were calculated from concentration-effect curves by interpolation. An evaluation was based on means from at least three independent experiments, each comprising three replicat es per
# (§6) DMSO had not impact on the cell viability at the concentrations used.
# [2] = test system: murine malignant mesothelioma cell line AB12; experiment: MTT cytotoxicity assay, 72 h, AB12; type: cell-based, mouse; conditions: exposure time 72 h
# Text: as §1, §2, §3, §4, §5, §6
# [3] = test system: human nonmalignant mesothelioma cell line Met5A; experiment: MTT cytotoxicity assay, 72 h, Met5A; type: cell-based; conditions: exposure time 72 h
# [4] = test system: patient-derived Meso92 cell line (biphasic MPM); experiment: MTT cytotoxicity assay, 72 h, Meso92; type: cell-based, human; conditions: exposure time 72 h
# [5] = test system: patient-derived Meso84 cell line (sarcomatoid MPM); experiment: MTT cytotoxicity assay, 72 h, Meso84; type: cell-based, human; conditions: exposure time 72 h
# [6] = test system: human malignant mesothelioma cell line LO68; experiment: MTT cytotoxicity assay, 72 h, LO68; type: cell-based; conditions: exposure time 72 h
# [7] = test system: patient-derived VMC23 cell line (epithelioid MPM); experiment: MTT cytotoxicity assay, 72 h, VMC23; type: cell-based, human; conditions: exposure time 72 h
# [8] = Aqueous stability by RP-HPLC in 1:1 DMSO:H2O over 72 h; type: physicochemical; conditions: room temperature
# Method: The aqueous stability of the Au(III)–DTC complexes was assessed by monitoring their RP-HPLC profiles in a 1:1 DMSO:H2O mixture at room temperature over a 3-day period (Supplementary Figures 112–146).
# Determination of the purity of cyclometalated Au( III) complexes was performed using analytical HPLC on a Shimadzu Prominence System equipped with a DGU -20A3 Degasser, two LC-20AD Liquid Chromatography Pump, a SPD-20A UV/Vis Detector and a Shim Pack GVP-ODS 2.0 mm 18 column ([…], 120Å, 250 mm × 4.60 mm i.d.). The analysis was conducted at r.t. with a flow rate of 1.0 mL/min and detection at 254 and 280 nm. Mobile phase A was H2O + 0.1% Trifluoroacetic acid (TFA) while mobile phase B is ACN + 0.1% TFA. The gradient program parameters were as follows: mobil e phase B was increased from 30 to 95% over 30 min. 95% mobile phase B was maintained for 10 min, 95 to 30% over 5 min, and finally returned to 30% for 10 min for the next analysis. LogP values of the complexes were calculated based on the HPLC retention times derived from the calibration standard curve. The calibration standard curve was established using 2-butanone, phenylacetonitrile, anisole, ethyl benzoate, benzophenone, diphenyl ether and triphenylamine. To conduct an aqueous stability study, the HPLC profiles of the sample stock solutions were diluted to a 1:1 ratio of DMSO to […]
# water. […]
Structure (SMILES),IC50 [1] [nM],IC50 [2] [nM],IC50 [3] [nM],IC50 [4] [nM],IC50 [5] [nM],IC50 [6] [nM],IC50 [7] [nM],hydrolysis over the 72-h period [8],"minor RP-HPLC peak, share of the total area after 24 h [8] [%]","minor RP-HPLC peak, share of the total area after 72 h [8]"
COC1c2cccc[c]2[Au-]2([S]C(=[N+](C)C)[S]2)[n+]2ccccc21.F[P-](F)(F)(F)(F)F (racemic) [4A],1400 ± 200,290 ± 40,720 ± 210,160 ± 30,190 ± 30,1300 ± 300,4700 ± 700,,,
CC[N+](CC)=C1[S][Au-]2([S]1)[c]1ccccc1C(OC)c1cccc[n+]12.F[P-](F)(F)(F)(F)F (racemic) [4B],4800 ± 700,330 ± 100,430 ± 130,6300 ± 1000,1700 ± 500,2900 ± 800,7300 ± 1800,,,
CC[N+](=C1[S][Au-]2([S]1)[c]1ccccc1C(OC)c1cccc[n+]12)c1ccccc1.F[P-](F)(F)(F)(F)F (racemic) [4E],3200 ± 300,1900 ± 400,1400 ± 300,5300 ± 200,2300 ± 600,4500 ± 500,4300 ± 800,less than 10%,5,7%
COC1c2cccc[c]2[Au-]2([S]C(=[N+]3CCCC3)[S]2)[n+]2ccccc21.F[P-](F)(F)(F)(F)F (racemic) [4F],3300 ± 800,320 ± 50,740 ± 90,1700 ± 500,340 ± 100,1400 ± 200,2900 ± 300,,,
COC1c2cccc[c]2[Au-]2([S]C(=[N+]3CCCCCC3)[S]2)[n+]2ccccc21.F[P-](F)(F)(F)(F)F (racemic) [4G],2400 ± 700,230 ± 60,2000 ± 300,4800 ± 500,1800 ± 400,1600 ± 200,3500 ± 700,,,
C[N+](C)=C1[S][Au-]2([S]1)[c]1ccccc1-c1cccc[n+]12.F[P-](F)(F)(F)(F)F (stereo not shown) [1A],1100 ± 300,88 ± 2,310 ± 70,190 ± 40,1300 ± 300,1000 ± 300,630 ± 150,,,
CC[N+](CC)=C1[S][Au-]2([S]1)[c]1ccccc1-c1cccc[n+]12.F[P-](F)(F)(F)(F)F (stereo not shown) [1B],890 ± 130,190 ± 20,530 ± 70,690 ± 210,85 ± 7,550 ± 160,1600 ± 300,,,
F[P-](F)(F)(F)(F)F.c1ccc(C[N+](Cc2ccccc2)=C2[S][Au-]3([S]2)[c]2ccccc2-c2cccc[n+]23)cc1 (stereo not shown) [1D],760 ± 100,1900 ± 200,1300 ± 300,1400 ± 300,1400 ± 100,1500 ± 400,1400 ± 200,,,
CC[N+](=C1[S][Au-]2([S]1)[c]1ccccc1-c1cccc[n+]12)c1ccccc1.F[P-](F)(F)(F)(F)F (stereo not shown) [1E],850 ± 100,840 ± 200,690 ± 130,2000 ± 300,1200 ± 100,2300 ± 300,1300 ± 200,,,
F[P-](F)(F)(F)(F)F.c1cc[c]2c(c1)-c1cccc[n+]1[Au-]21[S]C(=[N+]2CCCC2)[S]1 (stereo not shown) [1F],1500 ± 100,200 ± 60,180 ± 50,220 ± 60,190 ± 40,1700 ± 300,930 ± 280,,,
C[N+](C)=C1[S][Au-]2([S]1)[c]1ccccc1Cc1cccc[n+]12.F[P-](F)(F)(F)(F)F (stereo not shown) [2A],2800 ± 200,170 ± 20,430 ± 80,260 ± 40,220 ± 60,1200,8400 ± 1000,,,
CC[N+](CC)=C1[S][Au-]2([S]1)[c]1ccccc1Cc1cccc[n+]12.F[P-](F)(F)(F)(F)F (stereo not shown) [2B],3000 ± 400,300 ± 60,530 ± 80,6200 ± 1700,420 ± 120,2200 ± 400,6600 ± 1700,,,
CC[N+](=C1[S][Au-]2([S]1)[c]1ccccc1Cc1cccc[n+]12)c1ccccc1.F[P-](F)(F)(F)(F)F (stereo not shown) [2E],1600 ± 200,2700 ± 600,3000 ± 600,1600 ± 200,1600 ± 400,2300 ± 100,2000 ± 600,less than 10%,4,remained unchanged
F[P-](F)(F)(F)(F)F.c1cc[c]2c(c1)Cc1cccc[n+]1[Au-]21[S]C(=[N+]2CCCC2)[S]1 (stereo not shown) [2F],1100 ± 100,290 ± 40,730 ± 120,1000 ± 300,560 ± 100,720 ± 120,970 ± 260,less than 10%,5,9%
C[N+](C)=C1[S][Au-]2([S]1)[c]1ccccc1C(=O)c1cccc[n+]12.F[P-](F)(F)(F)(F)F (stereo not shown) [3A],1900 ± 500,140 ± 40,440 ± 130,530 ± 110,1200 ± 200,990 ± 190,640 ± 60,,,
CC[N+](CC)=C1[S][Au-]2([S]1)[c]1ccccc1C(=O)c1cccc[n+]12.F[P-](F)(F)(F)(F)F (stereo not shown) [3B],1200,220 ± 10,1400 ± 100,1100 ± 300,1400 ± 300,930 ± 180,7500 ± 1400,,,
F[P-](F)(F)(F)(F)F.O=C1c2cccc[c]2[Au-]2([S]C(=[N+]3CCCCCC3)[S]2)[n+]2ccccc21 (stereo not shown) [3G],1100 ± 200,350 ± 70,1500 ± 200,1800 ± 200,1800 ± 300,1200 ± 100,1400 ± 200,,,
F[P-](F)(F)(F)(F)F.c1ccc(C[N+](Cc2ccccc2)=C2[S][Au-]3([S]2)[c]2ccccc2Nc2cccc[n+]23)cc1 (stereo not shown) [5D],520 ± 80,1100,1000 ± 200,1100 ± 200,1100 ± 300,950 ± 130,1300 ± 300,,,
CC[N+](=C1[S][Au-]2([S]1)[c]1ccccc1Nc1cccc[n+]12)c1ccccc1.F[P-](F)(F)(F)(F)F (stereo not shown) [5E],440 ± 130,180 ± 10,280 ± 80,400 ± 50,510 ± 100,760 ± 180,340 ± 40,,,
